Like-named read-outs stand apart in the source and are kept apart here.
How the values were obtained:
[1] = test system: purified SDS-resistant proteolytic enzyme preparation; assay: Inhibitor studies on purified SDS-resistant proteolytic enzyme preparation; assay type: biochemical, Pyrococcus furiosus; conditions: for inhibition: concentrations below 150 μM; for inhibition at point of complete saturation: reached at 400 μM
Experimental: FIG. 7. Effect of chelating inhibitors EDTA and EGTA on activity at 98° C. of purified SDS-resistant proteolytic enzyme preparation from Pyrococcus furiosus. Samples of purified enzyme preparation were assayed in the standard azocasein with the inhibitor concentrations indicated.
Determination of proteolytic activity was based on the cleavage of azocasein (Cowan, D. A., et al., 1987, Biochem, J. 247:121-133). Assay mixtures contained 900 μl of 0.1% azocasein in 0.05M sodium phosphate buffer (pH 7.3 at 100° C.), and 100 μl of sample. The reaction was terminated by the addition of 500 μl of 15% (w/v) trichloracetic acid, and the cooled on ice for 5 min. The precipitate formed was removed by centrifugation at 12,000×g for 3 min in a microcentrifuge. Color release as a result of proteolytic activity was detected by measuring the absorbance of the supernatant at 440 nm. […] A unit of activity is defined as the amount of protein which produces a change of 0.100 absorbance units at 440 nm for a 30 min. incubation at a given temperature. Total protein was measured using the BioRad assay kit.
(§1) Purified samples of the SDS-resistant protease were obtained by incubation of the cell-free extract for 24 hours in the presence of 1% SDS at 98° C. Extracts treated in this way were then dialyzed against 5 mM sodium phosphate buffer, pH 7.5 at 4° C. overnight and concentrated in a Pharmacia Omegacell Stirred Cell (nominal molecular weight limit of 10 kDa) to a concentration of 2-3 mg/ml protein measured by the Bio-Rad protein assay kit.

[2] = test system: purified SDS-resistant proteolytic enzyme preparation; assay: Effect of denaturing agents on activity of the purified protease (standard azocasein assay); assay type: biochemical, Pyrococcus furiosus; conditions: for percentage of original activity: standard assay conditions; for loss of proteolytic activity: 1 molar, at 98° C. for at least 30 minutes
Experimental: Several denaturing agents were added to azocasein, both in the presence and absence of the protease, to control of possible degradation of the substrate in the presence of the agents. […] Thus, high concentrations of urea and guanidinium chloride led to significant abiotic hydrolysis of azocasein such that results were difficult to interpret. The increases in relative activity above 100% are likely the result of the denaturing agents acting to make the azocasein substrate more susceptible to enzymatic hydrolysis.
(§2) Determination of proteolytic activity was based on the cleavage of azocasein (Cowan, D. A., et al., 1987, Biochem, J. 247:121-133). Assay mixtures contained 900 μl of 0.1% azocasein in 0.05M sodium phosphate buffer (pH 7.3 at 100° C.), and 100 μl of sample. The reaction was terminated by the addition of 500 μl of 15% (w/v) trichloracetic acid, and the cooled on ice for 5 min. The precipitate formed was removed by centrifugation at 12,000×g for 3 min in a microcentrifuge. Color release as a result of proteolytic activity was detected by measuring the absorbance of the supernatant at 440 nm. Linear response of the assay was obtained between 0.010 and 0.100 absorbance units. A unit of activity is defined as the amount of protein which produces a change of 0.100 absorbance units at 440 nm for a 30 min. incubation at a given temperature. Total protein was measured using the BioRad assay kit.
as §1

[3] = test system: purified SDS-resistant proteolytic enzyme preparation; assay: Effects of solvents on purified SDS-resistant proteolytic enzyme preparation; assay type: biochemical, Pyrococcus furiosus
Experimental: as §2, §1

[4] = Hydrolysis of synthetic substrate benzoyl DL-arginine p-nitroanilide; assay type: biochemical; conditions: at 60° C.
Experimental: (§3) For tests on the substrate specificity of the purified SDS-resistant preparation, benzoyl-L-arginine ethyl ester, benzoyl-DL-arginine p-nitroanilide, serum thymic factor, angiotensin I, and trypsin were obtained from Sigma. Assays of benzoyl-L-arginine ethyl ester and benzoyl-arginine p-nitroanilide were performed as described previously (Schwert, G. W. et al., 1955, Biochem. Biophys. Acta 16:570-575; Erlanger, B. F., et al., 1961, Arch. Biochem. Biophys. 95:271-278) with a change in buffers to 50 mM sodium phosphate buffer, pH 7.5, and a substrate preincubation of two minutes at standard assay temperature.

[5] = Hydrolysis of synthetic substrate benzoyl-L-arginine ethyl ester; assay type: biochemical; conditions: at 60° C.
Experimental: as §3

angiotensin I = assay: Hydrolysis of peptide angiotensin I (reverse phase separation of products); assay type: biochemical; conditions: after two hours at 40° C.
Experimental: FIG. 8. Comparison of hydrolysis products of angiotensin I polypeptide by trypsin and purified SDS-resistant proteolytic enzyme preparation ("Pyrolysin") showing similarity of cleavage except for one additional cleavage by the novel enzyme preparation.
A chromatogram of the cleavage products of angiotensin I after exposure to the purified P. furiosus protease and to trypsin is shown in FIG. 8.
Hydrolysis of peptides was conducted with a modification of a procedure described by Cowan et al., 1987, Biochem. J. 247:121-133). The peptides serum thymic factor and angiotensin I were incubated with the protease from P. furiosus for fifteen and sixty minutes at 98° C., and two hours with trypsin at 40° C. End products were separated by reverse phase chromatography on a Waters high-performance liquid chromatography system using a WISP auto injector and μ-Bondapak C18 with a linear gradient of acetonitrile and water, with 0.1% trifluoroacetic acid in both phases. Peaks from the reverse phase column were dried down in a Savant Speed-Vac and analyzed by Waters Pico-Tag amino acid analysis.

O=C(O)CI [iodoacetic acid]
% inhibition [1]: 0%

O=S(=O)(F)Cc1ccccc1 [phenyl methylsulfonyl fluoride]
% inhibition ([1]; 10 mM inhibitor): 0%

O[C@H](CS)[C@H](O)CS (racemic) [dithiothreitol]
percentage of original activity ([2]; 10 mM): 39.5%

O=C(O)CN(CCN(CC(=O)O)CC(=O)O)CC(=O)O [EDTA]
% inhibition ([1]; 100 μM inhibitor): 7.8% | % inhibition ([1]; 500 μM inhibitor): 51% | % inhibition ([1]; 10 mM inhibitor): 49% | inhibition [1]: no inhibition | inhibition at point of complete saturation [1]: about 50%

CN(C)C=O [Dimethylformamide]
% Activity ([3]; 10% (v/v) solvent): 80% | % Activity ([3]; 50% (v/v) solvent): 13% | % Activity ([3]; 100% solvent): 25%

O=C(O)c1cc[c]([Hg][Cl])cc1 [p-chloromercuribenzoate]
% inhibition ([1]; 10 mM inhibitor): 40%

OCCS [β-mecaptoethanol]
percentage of original activity ([2]; 150 mM): 57%

N=C(N)N [guanidinium chloride]
percentage of original activity ([2]; 1M denaturant): 256% | loss of proteolytic activity [2]: no loss of proteolytic activity | percentage of original activity ([2]; 2M denaturant): 299%

CC#N [Acetonitrile]
% Activity ([3]; 20% (v/v) solvent): 77% | % Activity ([3]; 50% (v/v) solvent): 71% | % Activity ([3]; 70% (v/v) solvent): 39%

O=C(O)CN(CCOCCOCCN(CC(=O)O)CC(=O)O)CC(=O)O [EGTA, [Ethylenebis(oxyethylenenitrilo)]tetraacetic acid]
% inhibition ([1]; 100 μM inhibitor): 7.8% | % inhibition ([1]; 500 μM inhibitor): 51% | % inhibition ([1]; 10 mM inhibitor): 49% | inhibition [1]: no inhibition | inhibition at point of complete saturation [1]: about 50%

NC(N)=O [urea]
loss of proteolytic activity [2]: no loss of proteolytic activity | percentage of original activity ([2]; 2M denaturant): 124% | percentage of original activity ([2]; 4M denaturant): 138%

B1: trypsin (protein, UniProt P00760 24-246, looked up)
Serine protease 1: IVGGYTCGANTVPYQVSLNSGYHFCGGSLINSQWVVSAAHCYKSGIQVRLGEDNINVVEGNEQFISASKSIVHPSYNSNTLNNDIMLIKLKSAASLNSRVASISLPTSCASAGTQCLISGWGNTKSSGTSYPDVLKCLKAPILSDSSCKSAYPGQITSNMFCAGYLEGGKDSCQGDSGGPVVCSGKLQGIVSWGSGCAQKNKPGVYTKVCNYVSWIKQTIASN
notes: comparison protease obtained from Sigma
hydrolysis of substrate [4]: effective | hydrolysis of substrate [5]: effective | remaining uncleaved peptide (angiotensin I): still a portion of uncleaved angiotensin I

Source: patent US5391489A, “Proteolytic enzymes from hyperthermophilic bacteria and processes for their production” (Johns Hopkins University, priority 1993, dated 1995)
